From patent publication US20080004561A1, “Method for Treating Oncological, Virulent and Somatic Diseases, Method for Controlling Treatment Efficiency, Pharmaceutical Agents and Composition for Carrying Out Said Treatment” (priority 2005, published 2008)

Columns and labels:
Erlich carcinoma [1] = assay: Inhibition of Erlich tumor growth by different schemes of DNase administration (Example 2); format: in vivo, mice; settings: day 3 to 7, 7 day after transplantation
Experimental: Bovine pancreatic DNase I (Fermentas) and human recombinant DNase I (Dornase; Gentech) were used. DNase I solution for injections were prepared by dissolving of DNase matrix solution in sterile phosphate buffer directly before administration. Cyclophosphamide and Doxorubicin were dissolved according to instruction.
Blood plasma DNA of tumor-bearing mice was received according to technique described above. Highly metastatic and low metastatic stains of mice' Luice lung carcinoma and Erlich carcinoma were used. Cells were cultivated in RPMI-1640 media with adding of 10% embryonic calf serum, 1% penicillin—streptomycin in 5% carbon dioxide atmosphere. For tumor induction in mice, cells were cultivated until the monolayer, than were detached with trypsin-EDTA solution. Cells were washed trice by centrifuging in phosphate buffer and were resuspensed until their concentration have become 0.5×10^7/ml. Viability was defined by inclusion of methylene blue in hemocytometer. Suspensions that contained 95% of viable cells were used for administration to animals.
Mice of C57B1 line and white not thoroughbred mice from “Rappolovo” animal house were used. Weight of animals was 24-26 grams. Animals were contained in cages, for 6-7 mice per one cage on a standard diet without water restriction. LLC cells in dose of 5×10^5 in 100 mkl of phosphate buffer were injected in soft tissues of thigh. Erlich tumor was subcutaneously replanted on the right side by injection of 0.2 ml 10% cells' suspension in isotonic sodium chloride solution.
In our experiments DNA circulating in blood plasma of patients was the therapeutic target of DNase. Prolonged presence of DNase in blood plasma at catalytically effective concentrations is essential for provision of maximal therapeutic effect.
Group 1—10 mice transplanted with Erlich carcinoma (control).
Group 2—10 mice transplanted with Erlich carcinoma. Mice were intraperitoneally injected with DNase at 1 mg/kg dose in […] of phosphate buffer twice a day starting from 3 up to 7 day after tumor transplantation.
Group 3—10 mice transplanted with Erlich carcinoma. Mice were intraperitoneally injected with DNase at 0.5 mg/kg dose in […] of phosphate buffer four times a day starting from 3 up to 7 day after tumor transplantation.

Erlich carcinoma [2] = assay: Combined use of DNase and Doxorubicin, Erlich tumor growth (Example 3); format: in vivo, mice; settings: Doxorubicin 2 mg/kg intravenously once a day and/or DNase 0.5 mg/kg intraperitoneally four times a day, day 3 to 7; 7th day after transplantation
Experimental: Bovine pancreatic DNase I (Fermentas) and human recombinant DNase […]) were used. DNase I solution for injections were prepared by dissolving of DNase matrix solution in sterile phosphate buffer directly before administration. […] Blood plasma DNA of tumor-bearing mice was received according to technique described above. Highly metastatic and low metastatic stains of mice' Luice lung carcinoma and Erlich carcinoma were used. […] For tumor induction in mice, cells were cultivated until the monolayer, than were detached with trypsin-EDTA solution. Cells were washed trice by centrifuging in phosphate buffer and were resuspensed until their concentration have become 0.5×10^7/ml. Viability was defined by inclusion of methylene blue in hemocytometer. […] Mice of C57B1 line and white not thoroughbred mice from “Rappolovo” animal house were used. Weight of animals was 24-26 grams. Animals were contained in cages, for 6-7 mice per one cage on a standard diet without water restriction. LLC cells in dose of 5×10^5 in 100 mkl of phosphate buffer were injected in soft tissues of thigh. […] Group 1-10 mice transplanted with Erlich carcinoma (control). Group 2-10 mice replanted with Erlich carcinoma. […] Group 3-10 mice replanted with Erlich carcinoma. […] Group 4-10 mice replanted with Erlich carcinoma. […] Results of experiments were estimated according to tumor's growth inhibition (TGI) that were expressed in percents to control data received at last day of DNase injection with standard formula using.

[3] = test system: DNA from biofilm matrix of Escherichia coli; assay: DNAase I processing of DNA from biofilm matrix, electrophoresis (Example 12); format: biochemical; settings: DNA processed for 3 hours by DNAase I at 37° C.
Description: (§1) Biofilms of Escherichia coli and Staphylococcus aureus were used in experiments. Biofilms were washed off by phosphate buffer from agar. Cells and matrix were separated by centrifuging. Standard phenol-chloroform method was used for DNA extraction from matrix. DNA amount was estimated by spectrophotometric analysis with wave's length 260 nm (SF-46). Received DNA was researched by electrophoresis in 0.8% […] gel with ethidium bromide staining.
(§2) One part of received DNA was processed for 3 hours by DNAase I at 37° C. After electrophoretic separation of processed and not processed DNA it was found out that: […]

[4] = test system: DNA from biofilm matrix of Staphylococcus aureus; assay: as above; format: biochemical; settings: DNA processed for 3 hours by DNAase I at 37° C.
Description: as §1, §2

[5] = test system: LLC tumor (highly metastatic strain); assay: DNase I influence on life span of mice transplanted with LLC tumor, highly metastatic strain (Example 16); format: in vivo, C57B1 mice; settings: for Tumor's growth at the last day of DNase treatment: DNase 1 mg/kg two times a day, growth renewed after withdrawal; for 30 day (number of alive\number of dead in group) / 50 day (number of alive\number of dead in group): DNase 1 mg/kg intraperitoneally two times a day
Experimental: Five groups of LLC transplanted mice participated in the experiment.
Group 1—7 mice (control).
Group 2—6 mice were treated with intraperitoneal administration of DNase at 1 mg/kg dose two times a day starting from 3 up to 7 day after tumor transplantation.
Group 3—6 mice were treated with intraperitoneal administration of DNase at 1 mg/kg dose two times a day starting from 3 up to 10 day after tumor transplantation.
Group 4—6 mice were treated with intraperitoneal administration of DNase at 1 mg/kg dose two times a day starting from 3 up to 15 day after tumor transplantation.
Group 5—6 mice were treated with intraperitoneal administration of DNase at 1 mg/kg dose two times a day starting from 3 up to 18 day after tumor transplantation.
Results of experiment were estimated according to animals' survival on the 30 and 50 day after tumor transplantation.

[6] = test system: HPRT gene's mutations in blood T-lymphocytes; assay: Frequency of HPRT gene's mutations in blood T-lymphocytes, somatic mosaicism model (Example 18); format: in vivo; settings: patients on Neovir after tumor surgery; human recombinant DNase I 200 mkg/kg intravenously 4 times a day during three weeks
Description: Frequency of HPRT gene's mutations in blood T-lymphocytes was studied as a model of somatic mosaicism. Human HPRT gene (chromosome Xq26) encodes enzyme that is constitutionally expressing but not essential and is involved in metabolism of purine nucleotides. Cloning was done according to Bigbee W. method (Bigbee W. Et al., Mutation Res., 1998, v. 397, pp. 119-136).

[7] = DNase 0.5 mg/kg intraperitoneally four times a day
[8] = DNase 1 mg/kg intraperitoneally twice a day

In the case of DNase, the “T% (tumor's growth inhibition)” value (Erlich carcinoma [1]; [7]) is reported as 76%, the “Tumor's volume” value (Erlich carcinoma [1]; [7]) is reported as 23 +/− 6 and the “T% (tumor's growth inhibition)” value (Erlich carcinoma [1]; [8]) is reported as 67%. The “Tumor's volume” value (Erlich carcinoma [1]; [8]) was 32 +/− 6, the “T% (tumor's growth inhibition)” value (Erlich carcinoma [2]) was 78% and the “Tumor's volume” value (Erlich carcinoma [2]) was 20 +/− 6. The “DNA band after electrophoresis” value [3] was “disappeared completely”, the “DNA band after electrophoresis” value [4] was “disappeared completely” and the “Tumor's growth at the last day of DNase treatment” value ([5]; 2nd group, day 3 to 7) was “significant inhibition of tumor's growth”. For the same substance, the “Tumor's growth at the last day of DNase treatment” value ([5]; 3rd group, day 3 to 10) was “significant inhibition of tumor's growth”, the “30 day (number of alive\number of dead in group)” value ([5]; day 3 to 7) was 0-6 and the “50 day (number of alive\number of dead in group)” value (“50 day” below) ([5]; day 3 to 7) was 0-6. The “30 day (number of alive\number of dead in group)” value ([5]; day 3 to 10) was 3-6, the “50 day” value ([5]; day 3 to 10) was 0-6 and the “50 day” value ([5]; day 3 to 15) was 3-3. For the same substance, the “Inhibition of tumor growth at day 18” value ([5]; DNase 1 mg/kg two times a day from 3rd up to 18th day) was “more than 95%” and the “Incidence of HPRT-deficient clones, times less than with immunostimulating therapy only” value [6] was 3 times.
